Measurements from patent publication US20120219496A1, “GADOLINIUM-LINKED NANOCLUSTERS” (priority 2009, published 2012).

Assay: R1 relaxivity determination (T1 relaxometry, slope of 1/T1 vs. Gd concentration)
Assay type: physicochemical
Conditions: 1.41 T (60 MHz), 40° C.
Procedure: Instrumentation. Dynamic light scattering (DLS) measurements were performed on a Zetasizer Nano from Malvern Instruments. The scattering angle was held constant at 90°. Microscopy measurements were performed on an Olympus IX 81 motorized inverted fluorescence microscope equipped with an Andor DU897 EMCCD, an X-Cite 120 excitation source (EXFO) and Sutter excitation and emission filter wheels. Image of FITC was acquired using the filter set HQ480/40, HQ535/50, Q505LP. Filter set was purchased from Chroma. Tl-relaxation times were determined using a Bruker mq60 MR relaxometer operating at 1.41 T (60 MHz). ICP-AES was performed by VHG Laboratories (Manchester, N.H.). Transmission electron microscopy (TEM) was performed with a JEOL 2010 electron microscope operated at 80 kV.
To assess the paramagnetic properties of the Gd-conjugated DNCs, the amount of Gd within the sample was determined by inductively coupled plasma atomic emission spectroscopy (ICP-AES). Tl-relaxation times were determined using a Bruker mq60 MR relaxometer operating at 1.41 T (60 MHz) and at 40° C. […] It is likely that only a marginal increase in R1 was observed, despite the larger size of DNCs, due to the “saturation” of ion relaxivity, which has also previously been reported for high generation dendrimers. As a point of comparison, Gd-DTPA was determined to have an R1 of 3.9 mM^−1 s^−1 per Gd.

O=C([O-])CN(CCN(CC(=O)[O-])CC(=O)O)CCN(CC(=O)[O-])CC(=O)O.[Gd+3] [Gd-DTPA]
R1 relaxivity per Gd: 3.9 mM⁻¹ s⁻¹
